According to article PMC7237762, “Total Synthesis and Biological Evaluation of Kakeromamide A and Its Analogues” (Frontiers in Chemistry, 2020):

Experiments:
[1] = tested on: neural stem cells (NSCs); experiment: NSC differentiation assay, astrocytic differentiation (GFAP immunostaining); type: cell-based; conditions: 2.5, 5 and 10 μM; 72 hours in differentiation medium; anti-GFAP immunostaining, Hoechst 33342 nuclei; n = 3
Procedure: (§1) Next, kakeromamide A or its respective derivative was exposed at three concentrations (2.5, 5, and 10 μM) during differentiation of neural stem cells (NSCs). The effects of kakeromamide A and its analogs on the neural differentiation into neurons or astrocytes were evaluated by using NeuO (Er et al., [2015]) a fluorescent probe which could selectively stain neurons, or immunostaining of an astrocyte marker GFAP (glial fibrillary acidic protein), respectively. The nuclei were stained by using Hoechst 33342 followed by the microscopic analysis. Their activities were determined by calculating a ratio NeuO or GFAP positive cells to whole cells and comparing with that of the control. […] Furthermore, the astrocytic or neuronal differentiation were promoted or inhibited, respectively, by treatment with four analogs of compound 1.
(§2) V. Procedures for Biological Tests:
(§3) Induction of neural stem cells in vitro: Neural stem cells (NSCs) were obtained following the procedure (Iwata, et al., 2016; Nakayama, et al., 2006) with modification. Embryoid bodies (EBs) were induced by hanging drop method for 72 hours using 7,500 cells per 20 µL of ESCs culturing medium without LIF. Then the EBs were cultured in non-adhesive bacterial dishes in Neuron Culture Medium (Sumitomo Bakelite, Tokyo, Japan) supplemented with 20 ng/mL rhEGF (R&D Systems, Minneapolis, MN, USA) and 20 ng/mL rhFGF-2 (R&D Systems). […]

[2] = tested on: neural stem cells (NSCs); experiment: NSC differentiation assay, neuronal differentiation (NeuO staining); type: cell-based; conditions: 2.5, 5 and 10 μM, 72 hours in differentiation medium, Hoechst 33342 nuclei, n = 3
Procedure: as §1, §2, §3

[3] = tested on: astrocytes; experiment: Cell cytotoxicity toward astrocytes (Hoechst 33342 staining); type: cell-based; conditions: 2.5, 5 and 10 μM, n = 3
Description: (§4) Bioactive compounds modulating proliferation and differentiation of neural stem cells are required as chemical probes to study about mechanism of neural development or lead compounds for regenerative medicine. In order to evaluate neural differentiation-modulating activities of kakeromamide A and its analogs, we elected to perform the biological tests using the same procedure that we reported in the isolation paper (Nakamura et al., [2018]). Neural stem cells were obtained following the procedure (Nakayama and Inoue, [2006]; Iwata et al., [2016]) with modification. 2.5, 5, and 10 μM of kakeromamide A or its respective derivative was added to astrocytes or neurons. The cell cytotoxicity of kakeromamide A and its analogs toward astrocytes or neurons was carried out using Hoechst 33342 staining (Figure 7).
(§5) Figure 7 Cytotoxicity of Kakeromamide A and Its Analogs. (A) Percentages of cell numbers calculated by Hoechst 33342 positive cells, compared to that of control, in evaluating effects of kakeromamide A and its analogs for astrocytes (n = 3, means ± S.D., *p < 0.05). (B) Percentages of cell numbers calculated by Hoechst 33342 positive cells, compared to that of control, in evaluating effects of kakeromamide A and its analogs for neurons (n = 3, means ± S.D., *p < 0.05).

[4] = tested on: neurons; experiment: Cell cytotoxicity toward neurons (Hoechst 33342 staining); type: cell-based; conditions: 2.5, 5 and 10 μM, n = 3
Description: as §4, §5

[5] = tested on: Hela cells; conditions: preliminary biological tests of the isolated natural product; ref Nakamura et al., 2018; read-out: cytotoxicity IC50 against Hela cells; cited from earlier work
Description: (§6) Marine cyanobacteria have been playing a pivotal role in producing structurally diversified and biologically intriguing peptides (Luesch et al., [2001]; Guzman-Martinez et al., [2007]; Zainuddin et al., [2007]). In 2018, we reported the isolation of a novel cyclopeptide, kakeromamide A (Figure 1), from the marine cyanobacterium Moorea bouillonii collected near Japan (Nakamura et al., [2018]). […] To the best of our knowledge, this is the first example of marine cyclopeptide t ...

[6] = tested on: neural stem cells (NSCs); conditions: isolated natural product; ref Nakamura et al., 2018; cited from earlier work
Description: as §6

Kakeromamide A
astrocytic differentiation of NSCs (ratio of GFAP positive cells to whole cells vs control) [1]: promoting differentiation of NSCs into astrocytes
neuronal differentiation of NSCs (ratio of NeuO positive cells to whole cells vs control) [2]: inhibiting neuronal differentiation of NSCs
cytotoxicity toward astrocytes (cell number by Hoechst 33342 positive cells vs control) [3]: No significant cytotoxicity
cytotoxicity toward neurons (cell number by Hoechst 33342 positive cells vs control) [4]: No significant cytotoxicity
IC50 [5]: 10 µM
concentration inducing neural stem cells differentiation into astrocytes [6]: 2.5 to 10 µM
